Peptide text beside a SMILES is read from it.
Tests used:
[1] = tested on: guinea pig trachea smooth muscle; assay: Bronchodilator (relaxant) effect on isolated guinea pig tracheal rings; type: cell-based; conditions: for Relative Potency: guinea pig trachea, relative to VIP = 100%; for EC50: guinea pig tracheal rings, relaxation as % of maximum response to VIP 10^-6 M, three tissues pooled, linear regression, read-out: EC50 (M), agonist activity, bronchodilator effect
Excerpt: The bronchodilatory effect of VIP analogs was studied in a model utilizing guinea pig trachea. Wasserman, M. A. et al. "Comparative In Vitro Tracheal Relaxant Effects of Porcine and Hen VIP" in Vasoactive Intestinal Peptide ed. Said, S.I., Raven Press (New York, 1982).
All tissues were taken from male albino guinea pigs weighing 400-600 g, anesthetized with urethane 2 g/kg i.p. After exsanguination the trachea was removed and divided into four ring segments (3 mm length). Each ring was suspended by two 30 guage stainless steel wires in a 10 ml jacket tissue bath and attached via 4-0 silk thread to a Grass force displacement transducer (model FT03C, Grass Instrument Co., Quincy, MA), for isometric recording of tension. The smooth muscle was bathed in modified Krebs solution of the following composition: NaCl, 120 mM; KCl, 4.7 mM; CaCl2, 2.5 mM; MgSO4.7H2 O; 1.2 mM; NaHCO3, 25 mM; KH2 PO4 monobasic, 1.2 mM; and dextrose, 10 mM. Tissue baths were maintained at 37.5° C. and constantly bubbled with 95% O2 and 5% CO2. Responses were recorded on an 8 channel and 4 channel Hewlett-Packard (model 7702B and 7754A, respectively) recorder (Hewlett Packard, Paramus, NJ). Tracheal rings were placed under a resting tension of 1.5 g which was determined to be at or near optimal in preliminary experiments. Frequent readjustments of tension were required during the 60 min. stabilization period which followed. Tissues were rinsed at 15 min. intervals.
(§1) Cumulative concentration response curves were obtained for each tissue by successive […] in the bath concentration of VIP or potential VIP agonists according to the method of VanRossum J. M., Arch. Int Pharmacodyn, 143, 299-330 (1963). Only one cummulative dose response curve was obtained on a single piece of tissue. To minimize variability between tissues, relaxant responses are expressed as a percentage of the maximum response obtainable to VIP (10^-6 M=100%) added at the end of the concentration response curve. Responses obtained from three tissues were pooled and EC50 values were determined by linear regression.

[2] = tested on: Human Bronchial Smooth Muscle; assay: Relaxation of isolated human bronchial smooth muscle rings; type: cell-based; conditions: for Rel. Potency: human bronchial smooth muscle, relative to VIP (1-28) = 100%
Protocol: Human bronchial smooth muscle or intra-pulmonary arteries were obtained from surgical section or autopsy from Overlook Hospital, Summit, N.J. Airway or vascular rings were suspended by two 30 gauge stainless steel wires in a 10 ml jacket tissue bath and attached via 4-0 silk thread to a Grass forcer displacement transducer (model FT030C, Grass Instrument Co., Quincy, MA), for isometric recording of tension. The smooth muscle was bathed in modified Kreb's solution of the following composition: NaCl, 120 mM; KCl, 4.7 mM; CaCL2, 2.5 mM; MgSO4.7H2 O; 1.2 mM; NaHCO3, 25 mM; KH2 PO4 monobasic, 1.2 mM; and dextrose, 10 mM. Tissue baths were maintained at 37.5° C. and constantly bubbled with 95% O2 and 5% CO2. Responses were recorded on a 8 channel and 4 channel Hewlett-Packard (model 7702B and 7754A, respectively) recorder (Hewlett Packard, Paramus, NJ). All tissues were placed under a resting tension (airway, 1.5 g; vascular, 1 g) which was determined to be near optimal in preliminary experiments. Frequent readjustments of tension were required during the 120-180 min. stabilization period which followed. Tissues were rinsed at 15 min. intervals. Vascular tissues were primed once with phenylephrine (10^-5 M) and washed for an additional hour. Steady state contractions of vacular tissues were obtained with phenylephrine (10^-5 M) while airway tissues were precontracted with histamine (3×10^-4 M).
as §1, with “noted above.” for “J. M., Arch. Int Pharmacodyn, 143, 299-330 (1963).”, “cumulative” for “cummulative”, “were” for “are”, “papaverine (vascular, 10^-4 M=100%) or isoproterenol (airway, 10^-4” for “VIP (10^-6”, “curve. […]” for “curve.”, “four” for “three”

## CCCC[C@H](NC(=O)[C@H](CCC(N)=O)NC(=O)[C@H](CCCCN)NC(=O)[C@H](CCCNC(=N)N)NC(=O)[C@H](CC(C)C)NC(=O)[C@H](CCCN)NC(=O)[C@@H](NC(=O)[C@H](Cc1ccc(O)cc1)NC(=O)[C@H](CC(N)=O)NC(=O)[C@H](CC(=O)O)NC(=O)[C@@H](NC(=O)[C@H](Cc1ccccc1)NC(=O)[C@@H](NC(=O)[C@H](C)NC(=O)[C@H](CC(=O)O)NC(=O)[C@H](CO)NC(=O)[C@@H](N)Cc1c[nH]cn1)C(C)C)[C@@H](C)O)[C@@H](C)O)C(=O)N[C@@H](C)C(=O)N[C@H](C(=O)N[C@@H](CCCCN)C(=O)N[C@@H](CCCCN)C(=O)N[C@@H](Cc1ccc(O)cc1)C(=O)N[C@@H](CC(C)C)C(=O)N[C@@H](CC(N)=O)C(=O)N[C@@H](CO)C(=O)N[C@H](C(=O)N[C@@H](CC(C)C)C(=O)N[C@@H](CC(N)=O)C(N)=O)[C@@H](C)CC)C(C)C [(Orn^12, Nle^17)--VIP, (Orn^12, Nle^17)VIP]
[1]
  Relative Potency: 200%
  EC50: 5e-09 M
[2]
  Rel. Potency: 195%

## CCCC[C@H](NC(=O)[C@H](CCC(N)=O)NC(=O)[C@H](CCCCN)NC(=O)[C@H](CCCNC(=N)N)NC(=O)[C@H](CC(C)C)NC(=O)[C@H](CCCNC(=N)N)NC(=O)[C@@H](NC(=O)[C@H](Cc1ccc(O)cc1)NC(=O)[C@H](CC(N)=O)NC(=O)[C@H](CC(=O)O)NC(=O)[C@@H](NC(=O)[C@H](Cc1ccccc1)NC(=O)[C@@H](NC(=O)[C@H](C)NC(=O)[C@H](CC(=O)O)NC(=O)[C@H](CO)NC(=O)[C@H](Cc1c[nH]cn1)NC(C)=O)C(C)C)[C@@H](C)O)[C@@H](C)O)C(=O)N[C@@H](C)C(=O)N[C@H](C(=O)N[C@@H](CCCCN)C(=O)N[C@@H](CCCCN)C(=O)N[C@@H](Cc1ccc(O)cc1)C(=O)N[C@@H](CC(C)C)C(=O)N[C@@H](CC(N)=O)C(=O)N[C@@H](CO)C(=O)N[C@H](C(=O)N[C@@H](CC(C)C)C(=O)N[C@@H](CC(N)=O)C(N)=O)[C@@H](C)CC)C(C)C [Ac--(Nle^17)--VIP, Ac-(Nle^17)VIP]
[1]
  Relative Potency: 111%
  EC50: 9e-09 M
[2]
  Rel. Potency: 2800%

## CC[C@H](C)[C@H](NC(=O)[C@H](CO)NC(=O)[C@H](CC(N)=O)NC(=O)[C@H](CC(C)C)NC(=O)[C@H](Cc1ccc(O)cc1)NC(=O)[C@H](CCCCN)NC(=O)[C@H](CCCCN)NC(=O)[C@@H](NC(=O)[C@H](C)NC(=O)[C@H](CCSC)NC(=O)[C@H](CCC(N)=O)NC(=O)[C@H](CCCCN)NC(=O)[C@H](CCCNC(=N)N)NC(=O)[C@H](CC(C)C)NC(=O)[C@H](CCCNC(=N)N)NC(=O)[C@@H](NC(=O)[C@H](Cc1ccc(O)cc1)NC(=O)[C@H](CC(N)=O)NC(=O)[C@H](CC(=O)O)NC(=O)[C@@H](NC(=O)[C@H](Cc1ccccc1)NC(=O)[C@@H](NC(=O)[C@H](C)NC(=O)[C@H](CC(=O)O)NC(=O)[C@H](CO)NC(=O)[C@@H](N)Cc1c[nH]cn1)C(C)C)[C@@H](C)O)[C@@H](C)O)C(C)C)C(=O)N[C@@H](CC(C)C)C(=O)N[C@@H](CC(N)=O)C(N)=O [VIP, Vasoactive intestinal peptide]
[1]
  Relative Potency: 100%
  EC50: 1e-08 M
[2]
  Rel. Potency: 100%
[2]; human in vitro tissue, summary of Table II
  Bronchodilator / relaxant activity (in words): weak relaxant

## CCCC[C@H](NC(=O)[C@H](CCC(N)=O)NC(=O)[C@H](CCCCN)NC(=O)[C@H](CCCNC(=N)N)NC(=O)[C@H](CC(C)C)NC(=O)[C@H](CCCNC(=N)N)NC(=O)[C@@H](NC(=O)[C@H](Cc1ccc(O)cc1)NC(=O)[C@H](CC(N)=O)NC(=O)[C@H](CC(=O)O)NC(=O)[C@@H](NC(=O)[C@H](Cc1ccccc1)NC(=O)[C@@H](NC(=O)[C@H](C)NC(=O)[C@H](CC(=O)O)NC(=O)[C@H](CO)NC(=O)[C@@H](N)Cc1c[nH]cn1)C(C)C)[C@@H](C)O)[C@@H](C)O)C(=O)N[C@@H](C)C(=O)N[C@H](C(=O)N[C@@H](CCCCN)C(=O)N[C@@H](CCCCN)C(=O)N[C@@H](Cc1ccc(O)cc1)C(=O)N[C@@H](CC(C)C)C(=O)N[C@H](C(=O)N[C@@H](CO)C(=O)N[C@H](C(=O)N[C@@H](CC(C)C)C(=O)N[C@@H](CC(N)=O)C(N)=O)[C@@H](C)CC)[C@@H](C)O)C(C)C [(Nle^17, Thr^24)--VIP, (Nle^17, Thr^24)VIP] (HELM PEPTIDE1{H.S.D.A.V.F.T.D.N.Y.T.R.L.R.K.Q.[Nle].A.V.K.K.Y.L.T.S.I.L.N.[am]}$$$$V2.0)
[1]
  Relative Potency: 125%
  EC50: 8e-09 M

## CCCC[C@H](NC(=O)[C@H](CCC(N)=O)NC(=O)[C@H](CCCCN)NC(=O)[C@H](CCCNC(=N)N)NC(=O)[C@H](CC(C)C)NC(=O)[C@H](CCCCN)NC(=O)[C@@H](NC(=O)[C@H](Cc1ccc(O)cc1)NC(=O)[C@H](CC(N)=O)NC(=O)[C@H](CC(=O)O)NC(=O)[C@@H](NC(=O)[C@H](Cc1ccccc1)NC(=O)[C@@H](NC(=O)[C@H](C)NC(=O)[C@H](CC(=O)O)NC(=O)[C@H](CO)NC(=O)[C@H](Cc1c[nH]cn1)NC(C)=O)C(C)C)[C@@H](C)O)[C@@H](C)O)C(=O)N[C@@H](C)C(=O)N[C@H](C(=O)N[C@@H](CCCCN)C(=O)N[C@@H](CCCCN)C(=O)N[C@@H](Cc1ccc(O)cc1)C(=O)N[C@@H](CC(C)C)C(=O)N[C@@H](CC(N)=O)C(=O)N[C@@H](CO)C(=O)N[C@H](C(=O)N[C@@H](CC(C)C)C(=O)N[C@@H](CC(N)=O)C(N)=O)[C@@H](C)CC)C(C)C [Ac--(Lys^12, Nle^17)--VIP, Ac-(Lys^12, Nle^17)VIP] (HELM PEPTIDE1{[ac].H.S.D.A.V.F.T.D.N.Y.T.K.L.R.K.Q.[Nle].A.V.K.K.Y.L.N.S.I.L.N.[am]}$$$$V2.0)
[1]
  Relative Potency: 67%
  EC50: 1.5e-08 M

## CCCC[C@H](NC(=O)[C@H](CCC(N)=O)NC(=O)[C@H](CCCCN)NC(=O)[C@H](CCCCN)NC(=O)[C@H](CC(C)C)NC(=O)[C@H](CCCNC(=N)N)NC(=O)[C@@H](NC(=O)[C@H](Cc1ccc(O)cc1)NC(=O)[C@H](CC(N)=O)NC(=O)[C@H](CC(=O)O)NC(=O)[C@@H](NC(=O)[C@H](Cc1ccccc1)NC(=O)[C@@H](NC(=O)[C@H](C)NC(=O)[C@H](CC(=O)O)NC(=O)[C@H](CO)NC(=O)[C@@H](N)Cc1c[nH]cn1)C(C)C)[C@@H](C)O)[C@@H](C)O)C(=O)N[C@@H](C)C(=O)N[C@H](C(=O)N[C@@H](CCCCN)C(=O)N[C@@H](CCCCN)C(=O)N[C@@H](Cc1ccc(O)cc1)C(=O)N[C@@H](CC(C)C)C(=O)N[C@@H](CC(N)=O)C(=O)N[C@@H](CO)C(=O)N[C@H](C(=O)N[C@@H](CC(C)C)C(=O)N[C@@H](CC(N)=O)C(N)=O)[C@@H](C)CC)C(C)C [(Lys^14, Nle^17)--VIP, (Lys^14, Nle^17)VIP] (HELM PEPTIDE1{H.S.D.A.V.F.T.D.N.Y.T.R.L.K.K.Q.[Nle].A.V.K.K.Y.L.N.S.I.L.N.[am]}$$$$V2.0)
[1]
  Relative Potency: 172%
  EC50: 5.8e-09 M

Reference: patent US4605641A, “Synthetic vasoactive intestinal peptide analogs” (Hoffmann-La Roche Inc., priority 1984, dated 1986)
